According to US6358885B1, “Substituted phenylheterocyclic herbicides” (Mississippi State University, priority 1992, dated 2002):

What was measured:
wild buckwheat = assay: Test C preemergence/postemergence greenhouse plant response rating 0 to 100; type: in vivo, Polygonum convolvulus; details: Rate 31 g/ha
Procedure, shortened: (§1)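 Compounds in non-phytotoxic solvent applied preemergence to sandy loam one day after planting, postemergence at the 1–4 leaf stage, or to ~2.5 cm floodwater over silt loam.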

chickweed = assay: as above; type: in vivo, Stellaria media; details: for Plant response rating, Chickweed: 125 g/ha, 0 to 100 scale
Procedure, shortened: as §1

wild oat = assay: Test B preemergence/postemergence greenhouse plant response rating 0 to 10; type: in vivo, Avena fatua; details: for Plant response rating, Wild oat: 0 to 10 scale
Procedure, shortened: (§2)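 Both application timings were run together: seeds got compound preemergence, and established seedlings (two to eighteen cm) got it postemergence. Non-phytotoxic solvent carried the chemical. Ratings are visual, versus controls, at twelve to sixteen days.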

wheat = assay: as above; type: in vivo, Triticum aestivum; details: for Plant response rating, Wheat: 0 to 10 scale
Procedure, shortened: as §2

rape = assay: as above; type: in vivo, Brassica napus; details: for Plant response rating, Rape: 0 to 10 scale
Procedure, shortened: as §2

morningglory = assay: Test C preemergence/postemergence greenhouse plant response rating 0 to 100; type: in vivo, Ipomoea hederacea; details: for Plant response rating, Morningglory: 125 g/ha, 0 to 100 scale
Procedure, shortened: as §1

downy brome = assay: as above; type: in vivo, Bromus tectorum; details: for Plant response rating Downy Brome: 125 g/ha, 0 to 100 scale
Procedure, shortened: as §1

soybean = assay: as above; type: in vivo, Glycine max; details: for Plant response rating, Soybean: 125 g/ha, 0 to 100 scale
Procedure, shortened: as §1

crabgrass = assay: Test B preemergence/postemergence greenhouse plant response rating 0 to 10; type: in vivo, Digitaria spp.; details: for Plant response rating, Crabgrass: 0 to 10 scale
Procedure, shortened: as §2

COCOc1cc(-c2nn3c(c2Cl)CCCC3)c(F)cc1Cl [Compound 58]
Plant response rating (0 to 100), Wild buckwheat (wild buckwheat; POSTEMERGENCE): 100 | Plant response rating (0 to 100), Wild buckwheat (wild buckwheat; PREEMERGENCE): 100 | Plant response rating, Chickweed (chickweed; POSTEMERGENCE): 100 | Plant response rating (0 to 100), Chickweed (chickweed; POSTEMERGENCE, Rate 2 g/ha): 20 | Plant response rating, Chickweed (chickweed; PREEMERGENCE): 70 | Plant response rating (0 to 100), Chickweed (chickweed; PREEMERGENCE, Rate 2 g/ha): 10 | Plant response rating (0 to 100), Chickweed (chickweed; Rate 8 g/ha, POSTEMERGENCE): 70 | Plant response rating (0 to 100), Chickweed (chickweed; Rate 31 g/ha, POSTEMERGENCE): 100 | Plant response rating (0 to 100), Chickweed (chickweed; Rate 31 g/ha, PREEMERGENCE): 10 | Plant response rating, Wild oat (wild oat; POSTEMERGENCE, Rate 50 g/ha): 7 | Plant response rating, Wild oat (wild oat; PREEMERGENCE, Rate 50 g/ha): 6 | Plant response rating (0 to 10 scale), Wild oat (wild oat; PREEMERGENCE, Rate 200 g/ha): 9 | Plant response rating, Wild oat (wild oat; Rate 200 g/ha, POSTEMERGENCE): 9 | Plant response rating, Wheat (wheat; POSTEMERGENCE, Rate 50 g/ha): 7 | Plant response rating, Wheat (wheat; PREEMERGENCE, Rate 50 g/ha): 2 | Plant response rating (0 to 10 scale), Wheat (wheat; PREEMERGENCE, Rate 200 g/ha): 7 | Plant response rating, Wheat (wheat; Rate 200 g/ha, POSTEMERGENCE): 8 | Plant response rating, Rape (rape; POSTEMERGENCE, Rate 50 g/ha): 9 | Plant response rating, Rape (rape; PREEMERGENCE, Rate 50 g/ha): 5 | Plant response rating (0 to 10 scale), Rape (rape; PREEMERGENCE, Rate 200 g/ha): 5 | Plant response rating, Rape (rape; Rate 200 g/ha, POSTEMERGENCE): 10 | Plant response rating, Morningglory (morningglory; POSTEMERGENCE): 100 | Plant response rating (0 to 100), Morningglory (morningglory; POSTEMERGENCE, Rate 2 g/ha): 50 | Plant response rating, Morningglory (morningglory; PREEMERGENCE): 30 | Plant response rating (0 to 100), Morningglory (morningglory; PREEMERGENCE, Rate 2 g/ha): 0 | Plant response rating (0 to 100), Morningglory (morningglory; Rate 8 g/ha, POSTEMERGENCE): 70 | Plant response rating (0 to 100), Morningglory (morningglory; Rate 8 g/ha, PREEMERGENCE): 0 | Plant response rating (0 to 100), Morningglory (morningglory; Rate 31 g/ha, POSTEMERGENCE): 90 | Plant response rating (0 to 100), Morningglory (morningglory; Rate 31 g/ha, PREEMERGENCE): 0 | Plant response rating Downy Brome (downy brome; POSTEMERGENCE): 90 | Plant response rating (0 to 100), Downy Brome (downy brome; POSTEMERGENCE, Rate 2 g/ha): 20 | Plant response rating Downy Brome (downy brome; PREEMERGENCE): 70 | Plant response rating (0 to 100), Downy Brome (downy brome; PREEMERGENCE, Rate 2 g/ha): 0 | Plant response rating (0 to 100), Downy Brome (downy brome; Rate 8 g/ha, POSTEMERGENCE): 40 | Plant response rating (0 to 100), Downy Brome (downy brome; Rate 8 g/ha, PREEMERGENCE): 0 | Plant response rating (0 to 100), Downy Brome (downy brome; Rate 31 g/ha, POSTEMERGENCE): 70 | Plant response rating (0 to 100), Downy Brome (downy brome; Rate 31 g/ha, PREEMERGENCE): 30 | Plant response rating, Soybean (soybean; POSTEMERGENCE): 85 | Plant response rating (0 to 100), Soybean (soybean; POSTEMERGENCE, Rate 2 g/ha): 50 | Plant response rating, Soybean (soybean; PREEMERGENCE): 0 | Plant response rating (0 to 100), Soybean (soybean; PREEMERGENCE, Rate 2 g/ha): 0 | Plant response rating (0 to 100), Soybean (soybean; Rate 8 g/ha, POSTEMERGENCE): 50 | Plant response rating (0 to 100), Soybean (soybean; Rate 8 g/ha, PREEMERGENCE): 0 | Plant response rating (0 to 100), Soybean (soybean; Rate 31 g/ha, POSTEMERGENCE): 70 | Plant response rating (0 to 100), Soybean (soybean; Rate 31 g/ha, PREEMERGENCE): 0 | Plant response rating, Crabgrass (crabgrass; POSTEMERGENCE, Rate 50 g/ha): 3 | Plant response rating, Crabgrass (crabgrass; PREEMERGENCE, Rate 50 g/ha): 0 | Plant response rating (0 to 10 scale), Crabgrass (crabgrass; PREEMERGENCE, Rate 200 g/ha): 9 | Plant response rating, Crabgrass (crabgrass; Rate 200 g/ha, POSTEMERGENCE): 3
